Entries after “also recorded” stand apart in the source; their conditions may differ.

Consider 2 compounds from patent publication US20230257771A1, “AAV DELIVERY SYSTEM FOR LUNG CANCER TREATMENT” (Christiana Care Health Services, Inc., priority 2020, published 2023).

One assay deals with wild type A549 cells. Description: MTS cell proliferation assay after drug exposure, wild type A549. Conditions: 72 hours. It is filed as cell-based, human. On the procedure: (§1) Cell viability was evaluated using the CellTiter 96 Aqueous Non-Radioactive Cell Proliferation Assay (Promega, Madison, WI). A549 cell lines were plated at 2×10^3 cells per well and allowed to culture for 24 hours. The cell media was then aspirated, the cells washed with PBS, then exposed to the MTS reagent for 3 hours. After 3 hours of MTS bio-reduction by proliferating cells, the formazan product’s absorbance was measured using a 450 nm filter on an Infinite 2000 PRO microplate reader (Tecan, Mannadorf, Switzerland). Cell viability after drug exposure was evaluated using the CellTiter 96 Aqueous Non-Radioactive Cell Proliferation Assay. A549 cell lines were plated at 2×10^3 cells per well and allowed to culture for 24 hours. The cells were then treated with cisplatin, carboplatin, or a combination of cisplatin and vinorelbine for three days. The cell media was then aspirated, the cells washed with PBS, then exposed to the MTS reagent for 3 hours. After 3 hours of MTS bio-reduction by proliferating cells, the formazan product’s absorbance was measured using a 450 nm filter on an Infinite 2000 PRO microplate reader.
On the technique in general: Formazan colour is commonly taken as a measure of viable cells.

A further assay has as its system A549 Clone 2-16 cells. Nature of the assay: MTS assay, A549 Neh2 KO Clone 2-16 treated with cisplatin. The class given is cell-based, human. Conditions: cisplatin 1, 2, 3, 5, 10 uM, compared to wildtype A549. An excerpt: (§2) The lung adenocarcinoma-derived cell line, A549, was used transfected with CRISPR/Cas9 designed to target exon 2 of NRF2 to create individual clones with random indel patterns. A total of three clones, 1-17, 2-16, and 2-23, were isolated and expanded. All three clones were collected for genomic DNA isolation and sanger sequencing to confirm the indels present. The DECODR program was used to deconvolute the sanger sequencing of each clone. The A549 cell line is polyploid and therefore, these clones contain 3 alleles of the NRF2 gene. Clone 1-17 contains -2, -2, -13 base pair deletions. Clone 2-16 contains a -1 base pair deletion across all alleles. Clone 2-23 contains two wildtype alleles and a -2 base pair deletion. A cell proliferation assay was used to assess the functionality of NRF2 after CRISPR targeting in combination with cisplatin treatment. The MTS assay was used to measure cellular proliferation of A549 wildtype, Clone 1-17, 2-16, and 2-23 cells. Cells were plated at the same concentration in each well and allowed to recover for 24 hours. […] Absorbance values for each clone and concentration were normalized by dividing the absorbance by the absorbance of each control well (0 µM). Normalized values for each clone at each concentration were then averaged across and standard error of the mean was calculated. […]

For another assay, the system named is wild type A549 tumors. Description: Xenograft mouse model, wild type A549 tumors. The class given is in vivo. On the procedure: The animal trials presented herein were carried out at Washington Biotech Inc., Simpsonville Maryland, under animal use and care protocol (SOP 505, SOP 520, SOP 522, SOP 1610, SOP1650) approved by the animal care and use committee of Washington Biotechnology Inc. (AAALAC accredited Animal Welfare Assurance number A4192-01). The human xenograft model was established using methodology reported previously. Kellar et al., Biomed Res. Int. 2015, 1-17 (2015). Female athymic nude mice (Envigo, 5-6 weeks old) were used in this study. Approximately 5 × 10^6 cells (wild type A549 or homozygous knockout (clonal expansion 2-11)) suspended in PBS with 20% Matrigel were injected subcutaneously into right flank of each mouse. Tumor volume was measured three times a week with a digital caliper once palpable, and calculated using the formula, tumor size = ab^2/2, where ‘a’ is the larger and ‘b’ is the smaller of the two dimensions. When tumors grew up to a mean volume of around 100 mm^3, A549 tumor bearing mice or A549-2-11 tumor bearing mice were randomly divided into 7 groups (N=5 for each group) respectively and subject to dose/regimen-finding study. […] Tumor volume and body weight was closely monitored over time. […] The data were expressed as mean ± SD. […]

The subject of a further assay is A549 Clone 1-17 cells. Nature of the assay: MTS assay, A549 Neh2 KO Clone 1-17 treated with cisplatin. The class given is cell-based, human. The following applies: cisplatin 1, 2, 3, 5, 10 uM, compared to wildtype A549.
Text: as §2

The subject of assay [1] is 2-11 A549 cells (NRF2 knockout). Description: MTS cell proliferation assay after drug exposure, NRF2 knockout A549 (2-11). It is filed as cell-based, human. Conditions: 72 hours; for chemosensitivity (MTS): increasing dosages of single drug. On the procedure:
as §1

Assay [2] deals with NRF2 knockout A549 (2-11) tumors. Description: Xenograft mouse model, NRF2 knockout A549 (2-11) tumors. It is filed as in vivo. Here is the method:
The animal trials presented herein were carried out at Washington Biotech Inc., Simpsonville Maryland, under animal use and care protocol (SOP 505, SOP 520, SOP 522, SOP 1610, SOP1650) approved by the animal care and use committee of Washington Biotechnology Inc. (AAALAC accredited Animal Welfare Assurance number A4192-01). The human xenograft model was established using methodology reported previously. Kellar et al., Biomed Res. Int. 2015, 1-17 (2015). Female athymic nude mice (Envigo, 5-6 weeks old) were used in this study. Approximately 5 × 10^6 cells (wild type A549 or homozygous knockout (clonal expansion 2-11)) suspended in PBS with 20% Matrigel were injected subcutaneously into right flank of each mouse. Tumor volume was measured three times a week with a digital caliper once palpable, and calculated using the formula, tumor size = ab^2/2, where ‘a’ is the larger and ‘b’ is the smaller of the two dimensions. When tumors grew up to a mean volume of around 100 mm^3, A549 tumor bearing mice or A549-2-11 tumor bearing mice were randomly divided into 7 groups (N=5 for each group) respectively and subject to dose/regimen-finding study. They were treated with tail vein injection of (1) Cisplatin (2 mg/kg), (2) Carboplatin (25 mg/kg), (3) Cisplatin (5 mg/kg) and Vinorelbine (5 mg/kg) or (4) saline on day 0, 3, 6 and 9 (day 0 is designated as the day of dose started) (Sanjana et al., 2014, Nature Methods 11(8); 783-784). Tumor volume and body weight was closely monitored over time. After 16 days, the animals were sacrificed, with tumor removed, weighed and processed for molecular analysis. Mice were euthanized. The data were expressed as mean ± SD. Student’s t-test and one-way or two-way ANOVA was used to assess the significance of difference. A P value < 0.05 was considered significant.
A549 xenografts were resected on day 16, snap frozen in liquid nitrogen and stored in -80° C. until usage. All immunofluorescence staining was performed as previously described. Wang et al., Investig. Opthalmology Vis. Sci. 58, 3896 (2017). Briefly, tumors were embedded in Optimum Cutting Temperature (Tissue Tek, Torrance, CA, USA) and 16-µm-thick sections were obtained with a Leica CM3050 cryostat (Leica Microsystems, Buffalo Grove, IL, USA), and mounted on slides. Slides were fixed and incubated with blocking buffer for 1 hour at room temperature. Sections were then incubated with primary antibody (refer to Table 3 for more details), then washed in PBS and incubated with Alexa Fluor 488 labeled secondary antibody (1:200 dilution; Invitrogen, Grand Island, NY, USA) for 1 hour at RT. Sections were washed in PBS, then mounted with SlowFade Gold antifade mountant with DAPI (Invitrogen, Carlsbad, CA, USA). […]

The next assay deals with A549 Clone 2-23 cells. Nature of the assay: MTS assay, A549 Neh2 KO Clone 2-23 treated with cisplatin. The class given is cell-based, human. The following applies: cisplatin 1, 2, 3, 5, 10 uM, compared to wildtype A549.
Text: as §2

Where [3] appears, read: increasing cisplatin with Vinorelbine at 5 µM.
[4] abbreviates: increasing dosages of cisplatin.
Where [5] appears, read: 5 mg/kg cisplatin and 5 mg/kg vinorelbine in combination.
The mark [6] stands for this setting: cisplatin 2 mg/kg, tumors harvested day 16.

On to `N.N.[Cl][Pt][Cl]` [cisplatin], for which, in the assay with wild type A549 cells (setting [3]), the “cisplatin dosage above which elevated sensitivity is shown” value is recorded as > 5 µM. Also, the “dose dependence of cell proliferation (MTS)” value with wild type A549 cells (setting [4]) is “slight increase in cell proliferation up to 3 µM of cisplatin before proliferation is adversely affected at final concentrations of 5 µM and 10 µM”. The “resistance to drug (MTS proliferation)” value in the assay on wild type A549 cells (setting [4]) was “resistant to high dosages”. Further, the “sensitivity to cisplatin (MTS)” value was “relatively the same trend of sensitivity” in the assay with A549 Clone 2-16 cells, “relatively the same trend of sensitivity” with A549 Clone 1-17 cells and “even higher resistance than the wildtype cells” in the assay on A549 Clone 2-23 cells. Moreover, the “tumor growth over 16 days” value in the assay with wild type A549 tumors (setting [5]) was “more sensitive to this combination of drugs”; in assay [2] (setting [5]), “cessation of tumor growth and maintenance of tumor size; also recorded: reduction in tumor proliferation”; in assay [2] (cisplatin 2 mg/kg tail vein, day 0, 3, 6, 9), “proliferation of the implanted cells is arrested; also recorded: reduction in tumor proliferation”. Further, the results for the “size of extracted tumors” value (with wild type A549 tumors (setting [6]); in assay [2] (setting [6])) were “proliferate aggressively” and “smallest tumors”, respectively. Besides, the “concentrations with loss of proliferation” value in assay [1] (cisplatin) is ≥ 1 µM. The “chemosensitivity (MTS), combination” value in assay [1] (setting [3]) is recorded as “increased sensitivity; also recorded: a heightened sensitivity is also observed”. In assay [1], the “chemosensitivity (MTS)” value is given as “heightened sensitivity”.

On to `N.N.O=C([O-])C1(C(=O)[O-])CCC1.[Pt+2]` [carboplatin], for which, in assay [1] (listed as Carboplatin), the “chemosensitivity (MTS)” value is reported as “the cell killing response reflected what was observed in the experiments using cisplatin”. Moreover, in assay [2] (25 mg/kg carboplatin tail vein), the “tumor growth over 16 days” value is given as “reduction in tumor proliferation”.
